Here are results for 24 compounds from patent US20230321253A1, “BIFUNCTIONAL COMPOUNDS AND PHARMACEUTICAL USES THEREOF” (RISEN (SUZHOU) PHARMA TECH CO., LTD., priority 2022, published 2023).

In the assay the target is T1, KRAS-G12D protein (Homo sapiens, UniProt P01116, G12D).
T1 construct: host or cells: Aspc-1 cells
Description: KRAS-G12D protein degradation study in Aspc-1 cells (western blot). The class given is cell-based. The settings on record: for inhibition at 0.1 µM / inhibition at 1 µM / inhibition at 0.05 µM: ASPC1, 24 h; for inhibition at 0.1 µM / inhibition at 1 µM: read-out: Rate of protein degradation (KRAS^G12D); for inhibition at 1 µM: Aspc-1 cells treated with 1 μM compound; for inhibition at 0.05 µM: Aspc-1 cells treated with 50 nM compound, read-out: Rate of degradation (KRAS^G12D); for DC50: Aspc-1 cells, read-out: DC50 of test compound-induced KRAS^G12D protein degradation. Here is the method: Aspc-1 (Cobioer, CBP60546) cells in exponential growth phase were inoculated on a 6-well cell culture plate (Corning, 3516) at density of 1E6/well; and cells in the plate were cultured in 37° C. incubator containing 5% carbon dioxide. The next day, test compounds were dissolved in DMSO (Sigma, RNBF5902) for the preparation of a 10 mM concentration stock solution. The stock solution was diluted with complete medium (RPMI-1640 supplemented with 10% fetal bovine serum, 1% penicillin-streptomycin), yielding working solutions of various concentrations. The plate, after the addition of compounds, was placed in a 5% carbon dioxide incubator, and incubated at 37° C. for 24 hours (final DMSO concentration was 0.1%). The plate was then removed from the incubator, and the cells were washed twice with precooled PBS (Gibco, 14190250), followed by addition of 80 μL RIPA lysis buffer (containing protease inhibitor (Invitrogen™, AM2696)) to each well. The adherent cells were scraped off with a cell scraper, and the cell lysate was transferred to a 1.5 mL centrifuge tube followed with a 30-minute incubation on ice. The lysate was then clarified with centrifugation at 14000 rpm for 10 min at 4° C. The supernatant was transferred into a new 1.5 mL centrifuge tube, and protein concentration was measured with BCA protein detection kit (Thermo Fisher, 23225). KRAS-G12D protein level was assessed by western blot.
A mixture of cell lysate (40 μL) and loading buffer (10 μL 5×SDS (Beyotime, P0015L)) was denatured in a water bath at 95° C. for 10 min. The denatured protein sample, at 30 μL/well, was loaded into the corresponding well of a 4-20% Bis-Tris gel (Kingsley, M00656). Protein samples were initially electrophoresed at 80 V for 30 minutes, followed by 120 V for 40 minutes, until the bromophenol blue strip ran to an appropriate position. After electrophoresis, iBlot2 (Life Technologies, IB21001) was used to transfer the separated samples onto PVDF film. The PVDF membrane was washed with double-distilled water and then blocked in TBST (Thermo Scientific, 28360) buffer containing 5% non-fat milk, for 2 hours. Blocked membrane was rinsed with tris-buffered saline tween-20 (Thermo Scientific, 28360, TBST) three times, 10 minutes each. Membrane was then incubated with 1:1000 diluted KRAS primary antibody (CST, cat #14429S) overnight at 4° C. Membrane was rinsed as described previously followed by 1 hour incubation of secondary antibody at room temperature. After washing the film three times with TBST, ECL color developing solution was applied, and image was captured with Biorad Chemi Doc gel imager. The band gray value was quantified (Image Lab), and protein degradation level was calculated according to the following formula:
Level of RAS protein expression=(RAS-compound/GAPDH)/(RAS-DMSO/GAPDH)
Level of degradation (%)=(1−Rate of RAS protein expression)×100
The symbols “−”, “+”, “++”, and “+++” indicate that the degradation level of KRAS^G12D protein induced by the test compounds was 10% or less, 11 to 30%, 31 to 60%, and greater than 60%, respectively.
Half-maximum degradation concentrations (DC50s) of exemplary test compounds were calculated using GraphPad Prism and their values are shown in Table 6. The symbols “++++”, “+++”, “++” and “+” indicate DC50 equal or less than 10 nM, 11-50 nM, 51-100 nM, and 101-200 nM, respectively.
(In general: Immunoblotting shows a protein as a band on a membrane.)

[1] abbreviates: Aspc-1 cells treated with 0.1 μM compound, 24 hours.

T1 sequence (P01116 1-188 isoform P01116-2 G12D): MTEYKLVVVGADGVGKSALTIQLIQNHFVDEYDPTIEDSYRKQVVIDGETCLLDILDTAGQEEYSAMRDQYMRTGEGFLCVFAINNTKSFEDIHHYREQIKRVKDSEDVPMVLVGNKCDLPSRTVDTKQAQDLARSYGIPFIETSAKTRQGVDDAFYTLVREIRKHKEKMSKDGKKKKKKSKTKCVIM

Consider `C#Cc1c(F)ccc2cc(O)cc(-c3ncc4c(N5CC6CCC(C5)N6)nc(OCCCN5CCN(C(=O)C[C@H](NC(=O)[C@@H]6C[C@@H](O)CN6C(=O)[C@@H](NC(=O)C6(F)CC6)C(C)(C)C)c6ccc(-c7scnc7C)cc6)CC5)nc4c3F)c12` [Compound 64], for which the inhibition at 0.1 µM under setting [1] was no more than 10%. Further, the inhibition at 1 µM (24 hours) fell in the range of 11 to 30%.
Regarding `C#Cc1c(F)ccc2cc(O)cc(-c3ncc4c(N5CC6CCC(C5)N6)nc(OCCCN5CCN(C(=O)CN6CCN(c7ccc8c(c7)C(=O)N(C7CCC(=O)NC7=O)C8=O)CC6)CC5)nc4c3F)c12` (centres unmarked) [Compound 60], under setting [1], the inhibition at 0.1 µM is no more than 10%. For the same compound, where the note is “24 hours”, the inhibition at 1 µM fell in the range of 11 to 30%.
For `C#Cc1c(F)ccc2cc(O)cc(-c3ncc4c(N5CC6CCC(C5)N6)nc(OCC5(CN6CCC7(CC6)CC(Nc6cccc8c(C9CCC(=O)NC9=O)n[nH]c68)C7)CC5)nc4c3F)c12` (centres unmarked) [Compound 163], for the setting “24 hours”, the inhibition at 0.05 µM is 31 to 60%.
On the same count and under the same terms, for `C#Cc1c(F)ccc2cc(O)cc(-c3ncc4c(N5CC6CCC(C5)N6)nc(OCC5(CN6CC7CN(C(=O)CN8CCC(c9ccc%10c(C%11CCC(=O)NC%11=O)nn(C)c%10c9)CC8)CC7C6)CC5)nc4c3F)c12` (centres unmarked) [Compound 138] the value was greater than 60%.
Broadly, the DC50 is the concentration at which degradation of the target reaches its halfway point. In the case of `C#Cc1c(F)ccc2cc(O)cc(-c3ncc4c(N5CC6CCC(C5)N6)nc(O[C@H]5CCN(CCCCCCCCCC(=O)N[C@H](C(=O)N6C[C@H](O)C[C@H]6C(=O)N[C@@H](C)c6ccc(-c7scnc7C)cc6)C(C)(C)C)C5)nc4c3F)c12` [Compound 83], the DC50 was 101 to 200 nM. Moreover, under setting [1], the inhibition at 0.1 µM lay within 11 to 30%.
Consider `C#Cc1c(F)ccc2cc(O)cc(-c3ncc4c(N5CC6CCC(C5)N6)nc(OC5CCN(CCCCCCOc6cc(-c7scnc7C)ccc6CNC(=O)[C@@H]6C[C@@H](O)CN6C(=O)[C@@H](NC(=O)C6(F)CC6)C(C)(C)C)CC5)nc4c3F)c12` [Compound 131], for which the inhibition at 0.1 µM under setting [1] is no more than 10%.
Regarding `C#Cc1c(F)ccc2cc(O)cc(-c3ncc4c(N5CC6CCC(C5)N6)nc(OCC56CCCN5[C@@H](COC(=O)N5CCC(c7ccc8c(C9CCC(=O)NC9=O)nn(C)c8c7)CC5)CC6)nc4c3F)c12` (some centres unmarked) [Compound 97], the inhibition at 0.1 µM under setting [1] was 31 to 60%.
The same measure, in the same setting: for `C#Cc1c(F)ccc2cc(O)cc(-c3ncc4c(N5CC6CCC(C5)N6)nc(OCC5(CN6CCN(C(=O)CN7CCN(c8ccc9c(c8)C(=O)N(C8CCC(=O)NC8=O)C9=O)CC7)CC6)CC5)nc4c3F)c12` (centres unmarked) [Compound 116] the value was 31 to 60%.
As to `C#Cc1c(F)ccc2cc(O)cc(-c3ncc4c(N5CC6CCC(C5)N6)nc(OC5CCN(CCCCCNC(=O)CO[C@@H]6C[C@H](C)CC[C@H]6C(C)C)C5)nc4c3F)c12` (some centres unmarked) [Compound 143], the inhibition at 0.05 µM (24 hours) was in the range of 11 to 30%.
For `C#Cc1c(F)ccc2cc(O)cc(-c3ncc4c(N5CC6CCC(C5)N6)nc(OCC5(CN6CCN(CCCCCCCCCCC(=O)N7CCN(C(=O)C[C@H](NC(=O)[C@@H]8C[C@@H](O)CN8C(=O)[C@@H](NC(=O)C8(F)CC8)C(C)(C)C)c8ccc(-c9scnc9C)cc8)CC7)CC6)CC5)nc4c3F)c12` [Compound 106], the inhibition at 0.1 µM under setting [1] is 11 to 30%.
For the compound `C#Cc1c(F)ccc2cc(O)cc(-c3ncc4c(N5CC6CCC(C5)N6)nc(OCCCN5CCN(CC(=O)N6CCN(c7ccc8c(c7)C(=O)N(C7CCC(=O)NC7=O)C8=O)CC6)CC5)nc4c3F)c12` (centres unmarked) [Compound 59], under setting [1], the inhibition at 0.1 µM is no more than 10%. Also, the inhibition at 1 µM (24 hours) is no more than 10%.
On to `C#Cc1c(F)ccc2cc(O)cc(-c3ncc4c(N5CC6CCC(C5)N6)nc(OC5CCN(CC(=O)N6CCC7(CC6)CC(N6CCC(c8ccc(NC9CCC(=O)NC9=O)cc8F)CC6)C7)CC5)nc4c3F)c12` (centres unmarked) [Compound 114], for which the DC50 was less than 10 nM. The inhibition at 0.1 µM under setting [1] was greater than 60%.
With `C#Cc1c(F)ccc2cc(O)cc(-c3ncc4c(N5CC6CCC(C5)N6)nc(OCC5(CN6CCN(CC7CCN(c8ccc9c(c8)C(=O)N(C8CCC(=O)NC8=O)C9=O)CC7)CC6)CC5)nc4c3F)c12` (centres unmarked) [Compound 115], the DC50 lay in the range of 11 to 50 nM. Besides, the inhibition at 0.1 µM under setting [1] was in the range of 31 to 60%.
Consider `C#Cc1c(F)ccc2cc(O)cc(-c3ncc4c(N5CC6CCC(C5)N6)nc(OC5CCN(CCCCCCCCCCC(=O)N6CCN(C(=O)C[C@H](NC(=O)[C@@H]7C[C@@H](O)CN7C(=O)[C@@H](NC(=O)C7(F)CC7)C(C)(C)C)c7ccc(-c8scnc8C)cc7)CC6)CC5)nc4c3F)c12` [Compound 103], for which the inhibition at 0.1 µM under setting [1] was no more than 10%.
Take `C#Cc1c(F)ccc2cc(O)cc(-c3ncc4c(N5CC6CCC(C5)N6)nc(OCC5(CN6CCN(C(=O)CN7CCC(c8ccc9c(C%10CCC(=O)NC%10=O)nn(C)c9c8)CC7)CC6)CC5)nc4c3F)c12` (centres unmarked) [Compound 119]: the “Rate of protein degradation (KRAS^G12D)” value under setting [1] is “+ (11 to 30%)”.
For `C#Cc1c(F)ccc2cc(O)cc(-c3ncc4c(N5CC6CCC(C5)N6)nc(OCCCN5CCN(C(=O)CN6CCN(c7cccc8c7C(=O)N(C7CCC(=O)NC7=O)C8=O)CC6)CC5)nc4c3F)c12` (centres unmarked) [Compound 61], the inhibition at 0.1 µM under setting [1] was no more than 10%. Moreover, the inhibition at 1 µM (24 hours) was no more than 10%.
For `CCc1c(F)ccc2cc(O)cc(-c3ncc4c(N5CC6CCC(C5)N6)nc(OCC56CCCN5[C@@H](COC(=O)NCCCCC(=O)N[C@H](C(=O)N5C[C@H](O)C[C@H]5C(=O)N[C@@H](C)c5ccc(-c7scnc7C)cc5)C(C)(C)C)CC6)nc4c3F)c12` (some centres unmarked) [Compound 67], under setting [1], the inhibition at 0.1 µM was no more than 10%. Besides, the inhibition at 1 µM (24 hours) lay in the range of 31 to 60%.
Regarding `C#Cc1c(F)ccc2cc(O)cc(-c3ncc4c(N5CC6CCC(C5)N6)nc(OCCCN5CCN(CCCC(=O)N[C@H](C(=O)N6C[C@H](O)C[C@H]6C(=O)NCc6ccc(-c7scnc7C)cc6)C(C)(C)C)CC5)nc4c3F)c12` [Compound 30], under “24 hours”, the inhibition at 1 µM was in the range of 11 to 30%.
On to `C#Cc1c(F)ccc2cc(O)cc(-c3ncc4c(N5CC6CCC(C5)N6)nc(OCC5(CN6CCC(CC(=O)N7CCC(c8ccc9c(C%10CCC(=O)NC%10=O)nn(C)c9c8)CC7)CC6)CC5)nc4c3F)c12` (centres unmarked) [Compound 147], for which the inhibition at 0.05 µM (24 hours) lay within 31 to 60%.
Regarding `C#Cc1c(F)ccc2cc(O)cc(-c3ncc4c(N5CC6CCC(C5)N6)nc(OC5CCN(CC(=O)N6CCN(C(=O)C[C@H](NC(=O)[C@@H]7C[C@@H](O)CN7C(=O)[C@@H](NC(=O)C7(F)CC7)C(C)(C)C)c7ccc(-c8scnc8C)cc7)CC6)CC5)nc4c3F)c12` [Compound 71], the inhibition at 0.1 µM under setting [1] is no more than 10%.
Still for that read-out and setting: for `C#Cc1c(F)ccc2cc(O)cc(-c3ncc4c(N5CC6CCC(C5)N6)nc(O[C@@H]5CCN(CCCCCCCCCC(=O)N[C@H](C(=O)N6C[C@H](O)C[C@H]6C(=O)N[C@@H](C)c6ccc(-c7scnc7C)cc6)C(C)(C)C)C5)nc4c3F)c12` [Compound 88] the value was no more than 10%.
The same measure, in the same setting: for `C#Cc1c(F)ccc2cc(O)cc(-c3ncc4c(N5CC6CCC(C5)N6)nc(OC5CCN(CCCCCCCCCCOc6cc(-c7ncsc7C)ccc6CNC(=O)[C@@H]6C[C@@H](O)CN6C(=O)[C@@H](NC(=O)C6(F)CC6)C(C)(C)C)CC5)nc4c3F)c12` [Compound 77] the value was no more than 10%; for `CCc1c(F)ccc2cc(O)cc(-c3ncc4c(N5CC6CCC(C5)N6)nc(OC5CCN(CCCCCCCCCCC(=O)N[C@H](C(=O)N6C[C@H](O)C[C@H]6C(=O)N[C@@H](C)c6ccc(-c7scnc7C)cc6)C(C)(C)C)CC5)nc4c3F)c12` [Compound 80], 31 to 60%.
The same measure, in the same setting: for `C#Cc1c(F)ccc2cc(O)cc(-c3ncc4c(N5CC6CCC(C5)N6)nc(OCC5C[C@@H](NC(=O)CCCCCCCCCCC(=O)N6CCC(c7ccc8c(C9CCC(=O)NC9=O)nn(C)c8c7)CC6)CN5C)nc4c3F)c12` (some centres unmarked) [Compound 89] the value was no more than 10%.
